Reference: patent publication US8889894B2, “Compounds for use in therapy” (Bangor University, priority 2008, dated 2014)

Key:
C547BL/6 mice [1] = assay: Inflammatory cell infiltration to the airways (BAL, flowcytometry); type: in vivo; details: 48 hours after intratracheal liposomes; BAL-fluid; compared to empty liposome treatment
Protocol: (§1) Briefly, the compounds were mixed with phosphatidylcholine (Sigma) in chloroform. The chloroform was evaporated and the lipids recovered in sterile saline. After ultrasound sonication and vortexing, samples of 25 μg mycolic acids/100 μl/mouse were administered intratracheally. A liposome control was prepared similarly, but without the addition of any mycolic acid compound.
In order to be considered safe for therapeutic administration, compounds should preferably cause as little local inflammation or resulting tissue changes as possible.
After 48 hours, mice were sacrificed and a broncho-alveolar lavage (BAL) was performed to measure the airway cell types and numbers by flowcytometry. Increased cell numbers and the appearance of granulocytes (mainly neutrophils) in the BAL-fluid are indicative for cell recruitment to the airways as result of an inflammatory reaction.

C547BL/6 mice [2] = assay: Histo-pathological examination of lung tissue (haematoxylin and eosin, score 0-5); type: in vivo; details: 48 hours after intratracheal liposomes; lavaged lungs, double-blinded pathologist score; FIG. 4
Description: Lavaged lungs were ectomised to allow for histo-pathological examination of the lung tissue. A haematoxylin and eosin staining of the paraffin lung sections was followed by a thorough examination by a skilled pathologist who scored the sections according to the following criteria in a double-blinded manner:
1=a minority of the bronchi are surrounded by some infiltrated inflammatory cells
2=the majority of the bronchi are surrounded by some infiltrated inflammatory cells
3=dispersed are some heavy infiltrates of neutrophils and eosinophils
4=a lot of infiltrating neutrophils and eosinophils throughout the entire lung section
5=same as 4 with additionally signs of airway remodelling e.g. basal membrane thickening, mucus overproduction and/or smooth muscle cell hyperplasia

alveolar macrophages = assay: Foaming of mycolic acid treated alveolar macrophages (ORO-stained lung sections); type: in vivo, C57BL/6 mice; details: single intratracheal dose of liposomes carrying compound, a week earlier; compared with empty liposomes or liposomes containing compound 1; FIG. 2
Protocol: as §1
Formation of cholesterol-rich foamy alveolar macrophages upon intratracheal instillation of mycolic acid containing liposomes is indicative of a possible mycolic acid induced suppression of Th2-mediated eosinophilia. In a mouse model of allergic asthma this is mediated by a mechanism involving antigen presentation by these foam cells and the activity of regulatory T-lymphocytes (Korf et al, Am. J. Respir. Crit. Care Med., 174, 1-9, 2006).
We verified the induction of cholesterol-loaded cells in the lungs of C57BL/6 mice that received a single dose of liposomes carrying compounds a week earlier. The mice were treated with empty liposomes, liposomes containing control compound 1, liposomes containing compound 2 and liposomes containing compound 4. Frozen lung sections were stained with the lipophilic Oil Red O dye (ORO) thereby visualising foam cell intracellular lipid vesicles and counterstained with haematoxylin. […]

[3] = tested on: CD4+ T-helper (Th) lymphocytes; assay: mRNA expression patterns by RT-qPCR of CD4+ T-helper lymphocytes from asthmatic mouse lungs; type: in vivo; details: compounds in liposomes; with reference to empty liposome treatment; FIG. 7
Description: From the previous examples it can be concluded that the synthetic mycolic acids have a significant effect on immune reactivity. The nature of the immune modification appears to be structure dependent. This can be seen from examination of mRNA expression patterns by RT-qPCR of CD4+ T-helper (Th) lymphocytes, isolated from asthmatic mouse lungs after treatment with compounds 6, 8 and 9 formulated into liposomes. The results are shown in FIGS. 7a to e with reference to an empty liposome treatment. All of the synthetic mycolic acid isomers repressed the transcription of the Th2 effector cytokine IL-4 to some degree.

[4] = tested on: Th2-driven allergic airway inflammation; assay: Suppression of allergic airway inflammation in a mouse asthma model (OVA/Alum immunised, OVA-aerosol challenge); type: in vivo; details: liposomes intratracheally to OVA/Alum immunised mice, OVA-aerosol challenge after 7 days; flowcytometry (CCR3+); vs empty liposomes; FIG. 5
Protocol: as §1
Liposome containing synthetic mycolic acids compounds 5, 6 and 7 were administered intratracheally to mice which had been immunised for the experimental allergen chicken egg ovalbumin (OVA) adjuvanted with Alum (aluminium hydroxide). Following 7 days, the mice were challenged with OVA-aerosol. Th2-driven allergic airway inflammation was apparent in empty liposomes treated animals, from high eosinophil counts in the BAL-fluid by flowcytometry (CCR3^+).

| inflammatory cell infiltration to the airways (C547BL/6 mice [1]) | Structure (SMILES) | lung tissue changes (C547BL/6 mice [2]) | scores of ORO positive cells/microscopic field (alveolar macrophages) | also measured |
| --- | --- | --- | --- | --- |
| do not | CCCCCCCCCCCCCCCCCCCC[C@H]1C[C@H]1CCCCCCCCCCCCCCC1C[C@H]1CCCCCCCCCCC[C@@H](O)[C@@H](CC)C(=O)O (some centres unmarked) [Compound 3] | did not cause any significant lung tissue changes | – | – |
| – | CCCCCCCCCCCCCCCCCCCCCCCC[C@@H](C(=O)O)[C@H](O)CCCCCCCCCCC[C@H]1CC1CCCCCCCCCCCCCC[C@H]1C[C@H]1CCCCCCCCCCCCCCCCCCCC (some centres unmarked) [Compound 2] | – | significantly higher scores | – |
| do not | CCCCCCCCCCCCCCCCCCCCCCCC[C@@H](C(=O)O)[C@H](O)CCCCCCCCCCCCCCCC[C@H]1C[C@@H]1[C@@H](C)CCCCCCCCCCCCCCCCCCC(=O)C(C)CCCCCCCCCCCCCCCCCC (some centres unmarked) [Compound 4] | did not cause any significant lung tissue changes | significantly higher scores | – |
| – | CCCCCCCCCCCCCCCCCCCCCCCC[C@@H](C(=O)O)[C@H](O)CCCCCCCCCCCCCCCCC[C@@H]1CC1CCCCCCCCCCCCCCCC[C@@H](OC)[C@@H](C)CCCCCCCCCCCCCCCCCC (some centres unmarked) [Compound 6] | – | – | FoxP3 (regulatory T-cell) response [3]: especially good in suppressing; Gata-3 transcription (Th2) [3]: especially good in suppressing; IL-4 transcription (Th2 effector cytokine) [3]: especially good in suppressing; eosinophil count in the BAL-fluid [4]: at least two-fold decreased |
| – | CCCCCCCCCCCCCCCCCCCCCCCC[C@@H](C(=O)O)[C@H](O)CCCCCCCCCCCCCCC[C@@H]1C[C@@H]1CCCCCCCCCCCCCCCCCCC(=O)[C@@H](C)CCCCCCCCCCCCCCCCCC (single isomer, unassigned) [Example 3] | – | – | melting point: 66 to 68 °C |
